Source: patent EP0573253B1, “Topical anti-bacterial composition” (UNILEVER PLC, priority 1992, dated 1993)

Assays:
[1] = tested on: Staphylococcus aureus; assay: Agar dilution test, minimum inhibitory concentration; assay type: cell-based; details: for MINIMUM INHIBITORY CONCENTRATION: Trypticase Soy Agar II plates
Method: (§1) Standard agar dilution tests in order to establish the minimum inhibitory concentration (% v/v) for C6 acyl lactylate, C8 acyl lactylate and C12 acyl lactylate were performed both in the presence and the absence of a lipid on the following micro-organisms: • 1. Propionibacterium acnes • 2. Staphylococcus aureus • 3. Escherichia coli • 4. Candida albicans
(§2) Control experiments were performed employing benzoyl peroxide and erthyromycin.
(§3) The present tests were performed using Trypticase Soy Agar II incorporation plates with and without 10% intralipid, supplied by Kabi Pharmacia Inc. In each case the lactylate being tested was used at a starting concentration of 10,000 ug/ml.

[2] = tested on: Escherichia coli; assay: as above; assay type: cell-based; details: for MINIMUM INHIBITORY CONCENTRATION: Trypticase Soy Agar II plates; for inhibitory against gram-negative bacteria: text summary of Table II, lipid condition not stated
Method: as §1, §2, §3

[3] = tested on: Candida albicans; assay: as above; assay type: cell-based; details: for MINIMUM INHIBITORY CONCENTRATION: Trypticase Soy Agar II plates
Method: as §1, §2, §3

[4] = tested on: Propionibacterium acnes; assay: as above; assay type: cell-based; details: Trypticase Soy Agar II plates
Method: as §1, §2, §3

[5] = tested on: rate of hair loss; assay: Reduction of the rate of hair loss, panel of human volunteers (brushing and hair count); assay type: in vivo; details: human panellists, about 3 ml applied to the scalp daily at night, compared with placebo composition B; Student t-test
Method: The effect of selected acyl lactylates, as herein defined, on reducing the rate of hair loss was assessed using a panel of human volunteers.
Each panellist was requested to brush his or her hair immediately on getting out of bed in the morning before other grooming took place. The hair brushing consisted of ten vigorous strokes over the entire head from front to back, ten strokes from back to front and then ten strokes from each side to the opposite side. Brushing was carried out over a towel or other light cloth to collect any hairs that fell. In addition, all the hairs on the brush were removed with forceps. The total number of hair collected each day was counted. Panellists were requested to continue with their routine hair shampooing and grooming techniques as usual, the only change to this routine being the application of products in accordance with the invention or corresponding control or placebo products.
During the first month, each panellist carried out only the standard brushing, collecting and counting of hairs lost to provide a basis for comparison later. For the second and third months, the scalp was treated by adding the test or placebo compositions in addition to the standard brushing technique as previously described. […]
The results were analysed by the standard Student t-test.

[6] = text summary of Table II, lipid condition not stated

Compound | MINIMUM INHIBITORY CONCENTRATION ([1]; Lipid (10% intralipid)) | MINIMUM INHIBITORY CONCENTRATION ([1]; No Lipid) | MINIMUM INHIBITORY CONCENTRATION ([2]; Lipid (10% intralipid)) | MINIMUM INHIBITORY CONCENTRATION ([2]; No Lipid) | MINIMUM INHIBITORY CONCENTRATION ([3]; Lipid (10% intralipid)) | MINIMUM INHIBITORY CONCENTRATION ([3]; No Lipid) | MINIMUM INHIBITORY CONCENTRATION ([4]; Lipid (10% intralipid)) | MINIMUM INHIBITORY CONCENTRATION ([4]; No Lipid) | inhibitory against gram-negative bacteria [2] | inhibitory to gram-positive bacteria [1, 6] | inhibitory effect against yeast [3, 6] | reduction in the rate of loss of hair [5]
O=C(OOC(=O)c1ccccc1)c1ccccc1 [Benzoyl Peroxide, benzoyl peroxide, reference compound] | 0.12 % V/V | 0.25 % V/V | 0.12 % V/V | 0.25 % V/V | 0.12 % V/V | 0.25 % V/V | 0.06 % V/V | 0.25 % V/V | – | – | – | –
CC[C@H]1OC(=O)[C@H](C)[C@@H](O[C@H]2C[C@@](C)(OC)[C@@H](O)[C@H](C)O2)[C@H](C)[C@@H](O[C@@H]2O[C@H](C)C[C@H](N(C)C)[C@H]2O)[C@](C)(O)C[C@@H](C)C(=O)[C@H](C)[C@@H](O)[C@]1(C)O [Erthyromycin, erthyromycin, reference compound] | 3.1 x 10^-4 % V/V | 3.1 x 10^-4 % V/V | 0.01 % V/V | 0.01 % V/V | 0.01 % V/V | 0.01 % V/V | <1.9 x 10^-5 % V/V | <1.9 x 10^-5 % V/V | – | – | – | –
C6 acyl lactylate [C6 Lactylate] | pH Effect | " " | " " | " " | " " | " " | 0.5 % V/V | pH Effect | – | – | – | –
C8 acyl lactylate [C8 Lactylate] | 0.5 % V/V | 0.5 % V/V | 1.0 % V/V | 1.0 % V/V | 1.0 % V/V | 1.0 % V/V | 0.5 % V/V | 0.25 % V/V | 1 % v/v | – | – | –
C12 acyl lactylate [C12 Lactylate] | 0.5 % V/V | 0.06 % V/V | >1.0 % V/V | >1.0 % V/V | >1.0 % V/V | >1.0 % V/V | 0.25 % V/V | 0.00039 % V/V | > 1 % v/v | 0.0625 % v/v | > 1 % v/v | significantly reduced
